# Measured values from ChEMBL document CHEMBL1138486, “Sequence-derived three-dimensional pharmacophore models for G-protein-coupled receptors and their application in virtual screening” (J Med Chem, 2009).
# Target: T1, Complement component 3a receptor 1, isoform CRA_a (Homo sapiens, UniProt A8K2H7)
# T1 sequence (A8K2H7 whole entry): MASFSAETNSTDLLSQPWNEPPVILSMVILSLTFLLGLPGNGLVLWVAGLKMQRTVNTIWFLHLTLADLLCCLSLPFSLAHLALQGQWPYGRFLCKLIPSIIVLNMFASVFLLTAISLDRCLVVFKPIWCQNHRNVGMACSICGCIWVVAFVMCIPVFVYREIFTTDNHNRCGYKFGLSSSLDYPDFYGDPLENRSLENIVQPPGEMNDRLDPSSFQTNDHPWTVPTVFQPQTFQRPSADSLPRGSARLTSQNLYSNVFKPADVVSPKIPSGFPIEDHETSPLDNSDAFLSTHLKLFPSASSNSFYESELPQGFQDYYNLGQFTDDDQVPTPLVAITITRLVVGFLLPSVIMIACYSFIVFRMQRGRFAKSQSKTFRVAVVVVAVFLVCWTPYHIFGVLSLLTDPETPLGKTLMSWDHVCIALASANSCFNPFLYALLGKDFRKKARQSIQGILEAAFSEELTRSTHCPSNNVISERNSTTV
# Assay: Agonist activity at human C3AR1 expressed in […] by FLIPR assay
# Format: functional, cell-based
row,EC50 [nM],Compound
1,2.7,CCCCn1c(Cc2ccccc2)nc2cc(/C(=C/C(=O)O)c3ccccc3)ccc21
2,530,CCCCc1cn(Cc2ccc(-c3ccccc3C(=O)O)cc2)c2cccc(SC)c2c1=O
3,310,CCCCc1nc2cccc(CCCl)c2n1Cc1ccc(-c2ccccc2C(=O)O)cc1
4,2,CCCc1nc(Br)c(S(C)(=O)=O)n1Cc1ccc(-c2ccccc2-c2nn[nH]n2)cc1
